Measurements reported in patent US20200163984A1, “USE OF ISOVALERYL SPIRAMYCIN I, II AND/OR III IN MANUFACTURING MEDICAMENT FOR TREATING AND/OR PREVENTING TUMOR, AND MEDICAMENT” (SHENYANG FUYANG PHARMACEUTICAL TECHNOLOGY CO., LTD., priority 2017, published 2020).

Key:
[1] = test system: transplanted tumor of human glioma cell U251; assay: U251 transplanted tumor in nude mice; settings: for Tumor Volume (mm3) (d 1): d1
Description: (§1) U251 cells in a logarithmic growth phase were taken and subjected to a trypan blue exclusion experiment showing that the cell viability was more than 95%, then the cells were subjected to trypsinization, centrifugation, and supernatant removal. Then cell concentration was adjusted to 1×10^7/ml with matrigel, then each nude mouse was inoculated subcutaneously with 0.2 ml of cells at its right armpit and recorded as the first day of inoculation. When the tumor grows to be greater than or equal to 100 mm^3, the mice were randomly divided into 11 groups with 6 mice in each group: a model group, a cyclophosphamide group, isovaleryl spiramycin I groups with doses of 25, 50 and 100 mg/kg, isovaleryl spiramycin II groups with doses of 25, 50 and 100 mg/kg, and isovaleryl spiramycin III groups with doses of 25, 50 and 100 mg/kg. Each group was continuously administered intragastrically for 30 days with a dose of 20 ml/kg. The mice were sacrificed the next day after drug withdrawal and the indicators were tested. The long diameter and short diameter of the tumor, and the body weight of each mouse were recorded every 3 days from drug administration to nude mouse sacrifice.
(§2) The body weight of the nude mice and the long diameter (a) and short diameter (b) of the transplanted tumor were measured every 3 days, and the tumor volume (v), relative tumor volume (RTV) and relative tumor proliferation rate (T/C) are calculated respectively according to the following formulas, wherein V=a×b^2/2; RTV=V/V0 (V0 is the tumor volume before administration, V is the tumor volume before sacrifice), and T/C (%)=treatment group RTV/model control group RTV×100%.
(§3) Each mouse was weighed and sacrificed. After the tumor was completely stripped off from the body of the mouse, the non-tumor tissues such as blood stains and fat were removed to weigh the tumor and calculate the tumor growth inhibition rate. The average tumor weight of each group of mice is used as an indicator of efficacy. Tumor growth inhibition rate (%)=(1−the average tumor weight of the treatment group/the average tumor weight of the model group)×100%.

[2] = test system: transplanted tumor of human breast cancer cell MCF-7; assay: MCF-7 transplanted tumor in nude mice
Description: as §1, with “Then” for “U251 cells in a logarithmic growth phase were taken and subjected to a trypan blue exclusion experiment showing that the cell viability was more than 95%, then the cells were subjected to trypsinization, centrifugation, and supernatant removal. Then”
as §2, §3

[3] = test system: transplanted tumor of human bladder cancer cell T-24; assay: T-24 transplanted tumor in nude mice; settings: for Tumor Volume (mm3) (d30): d 30
Description: as §1, with “Then” for “U251 cells in a logarithmic growth phase were taken and subjected to a trypan blue exclusion experiment showing that the cell viability was more than 95%, then the cells were subjected to trypsinization, centrifugation, and supernatant removal. Then”, “group:” for “group: a model group, a cyclophosphamide group,”
as §2, §3

[4] = U251, high dose (100 mg/kg in method) i.g. 30 days
[5] = U251, low dose (25 mg/kg in method) i.g. 30 days
[6] = U251, medium dose (50 mg/kg in method) i.g. 30 days
[7] = MCF-7, 25 mg/kg (low dose) i.g. 30 days
[8] = MCF-7, 50 mg/kg (medium dose) i.g. 30 days
[9] = MCF-7, 100 mg/kg (high dose) i.g. 30 days
[10] = T-24, high dose (100 mg/kg in method) i.g. 30 days
[11] = T-24, low dose (25 mg/kg in method) i.g. 30 days
[12] = T-24, medium dose (50 mg/kg in method) i.g. 30 days

SMILES: CO[C@@H]1[C@@H](O[C@@H]2O[C@H](C)[C@@H](O[C@H]3C[C@@](C)(O)[C@@H](OC(=O)CC(C)C)[C@H](C)O3)[C@H](N(C)C)[C@H]2O)[C@@H](CC=O)C[C@@H](C)[C@@H](O[C@H]2CC[C@H](N(C)C)[C@@H](C)O2)/C=C/C=C/C[C@@H](C)OC(=O)C[C@H]1O [Isovaleryl spiramycin I, isovaleryl spiramycin I]
- Relative Tumor Proliferation Rate (T/C) [1, 4]: 25.80%
- tumor growth inhibition rate [1, 4]: 69.21%
- Relative Tumor Proliferation Rate (T/C) [1, 5]: 76.40%
- tumor growth inhibition rate [1, 5]: 30.94%
- tumor volume and relative tumor volume compared with the model group ([1]; U251, low, medium and high doses, P<0.05): significantly lower
- Relative Tumor Proliferation Rate (T/C) [1, 6]: 44.54%
- tumor growth inhibition rate [1, 6]: 44.53%
- Inhibition Rate (%) ([1]; U251 nude mice, 25 mg/kg): 30.94%
- Relative Tumor Proliferation Rate (T/C) ([1]; U251 nude mice, 25 mg/kg): 76.40%
- Relative Tumor Volume (RTV) ([1]; U251 nude mice, 25 mg/kg): 12.69 ± 1.08
- Tumor Weight ([1]; U251 nude mice, 25 mg/kg): 0.96 ± 0.08 g
- Tumor Volume (mm3) (d 1) ([1]; U251 nude mice, 25 mg/kg): 122.81 ± 10.35 mm3
- Tumor Volume (mm3) (d30) ([1]; U251 nude mice, 25 mg/kg): 1550.33 ± 72.99 mm3
- Inhibition Rate (%) ([1]; U251 nude mice, 50 mg/kg): 44.53%
- Relative Tumor Proliferation Rate (T/C) ([1]; U251 nude mice, 50 mg/kg): 44.54%
- Relative Tumor Volume (RTV) ([1]; U251 nude mice, 50 mg/kg): 10.67 ± 1.09
- Tumor Weight ([1]; U251 nude mice, 50 mg/kg): 0.77 ± 0.09 g
- Tumor Volume (mm3) (d 1) ([1]; U251 nude mice, 50 mg/kg): 124.39 ± 10.31 mm3
- Tumor Volume (mm3) (d30) ([1]; U251 nude mice, 50 mg/kg): 930.42 ± 204.72 mm3
- Inhibition Rate (%) ([1]; U251 nude mice, 100 mg/kg): 69.21%
- Relative Tumor Proliferation Rate (T/C) ([1]; U251 nude mice, 100 mg/kg): 25.80%
- Relative Tumor Volume (RTV) ([1]; U251 nude mice, 100 mg/kg): 10.05 ± 0.71
- Tumor Weight ([1]; U251 nude mice, 100 mg/kg): 0.43 ± 0.01 g
- Tumor Volume (mm3) (d 1) ([1]; U251 nude mice, 100 mg/kg): 124.88 ± 6.57 mm3
- Tumor Volume (mm3) (d30) ([1]; U251 nude mice, 100 mg/kg): 537.02 ± 93.66 mm3
- mouse weight compared with the model group ([1]; mouse, in vivo): no significant changes
- Body Weight (g) (d1) ([1]; mouse, in vivo, 25 mg/kg): 21.03 ± 0.55 g
- Body Weight (g) (d30) ([1]; mouse, in vivo, 25 mg/kg): 21.09 ± 0.53 g
- Body Weight (g) (d1) ([1]; mouse, in vivo, 50 mg/kg): 20.78 ± 0.66 g
- Body Weight (g) (d30) ([1]; mouse, in vivo, 50 mg/kg): 21.08 ± 0.54 g
- Body Weight (g) (d1) ([1]; mouse, in vivo, 100 mg/kg): 21.10 ± 0.35 g
- Body Weight (g) (d30) ([1]; mouse, in vivo, 100 mg/kg): 20.86 ± 0.66 g
- Inhibition Rate (tumor growth inhibition rate) [2, 7]: 31.10%
- Relative Tumor Proliferation Rate (T/C) [2, 7]: 71.92%
- Relative Tumor Volume (RTV) [2, 7]: 12.59 ± 7.49
- Tumor Volume (d 1) [2, 7]: 139.97 ± 26.58 mm3
- Tumor Volume (d 30) [2, 7]: 1634.85 ± 789.61 mm3
- Tumor Weight [2, 7]: 1.87 ± 0.25 g
- Inhibition Rate (tumor growth inhibition rate) [2, 8]: 51.72%
- Relative Tumor Proliferation Rate (T/C) [2, 8]: 49.05%
- Relative Tumor Volume (RTV) [2, 8]: 8.58 ± 4.41
- Tumor Volume (d 1) [2, 8]: 146.57 ± 32.97 mm3
- Tumor Volume (d 30) [2, 8]: 1162.80 ± 394.71 mm3
- Tumor Weight [2, 8]: 1.31 ± 0.50 g
- Inhibition Rate (tumor growth inhibition rate) [2, 9]: 70.12%
- Relative Tumor Proliferation Rate (T/C) [2, 9]: 30.80%
- Relative Tumor Volume (RTV) [2, 9]: 5.39 ± 0.97
- Tumor Volume (d 1) [2, 9]: 124.02 ± 15.14 mm3
- Tumor Volume (d 30) [2, 9]: 656.95 ± 49.58 mm3
- Tumor Weight [2, 9]: 0.81 ± 0.08 g
- tumor volume and relative tumor volume compared with the model group ([2]; MCF-7, low, medium and high doses, P<0.05): significantly lower
- mouse weight compared with the model group ([2]; mouse, in vivo): no significant changes
- Relative Tumor Proliferation Rate (T/C) [3, 10]: 33.95%
- tumor growth inhibition rate [3, 10]: 65.84%
- Relative Tumor Proliferation Rate (T/C) [3, 11]: 77.78%
- tumor growth inhibition rate [3, 11]: 20.55%
- tumor volume and relative tumor volume compared with the model group ([3]; T-24, low, medium and high doses, P<0.05): significantly lower
- Relative Tumor Proliferation Rate (T/C) [3, 12]: 58.92%
- tumor growth inhibition rate [3, 12]: 49.20%
- Inhibition Rate (%) ([3]; dose 25 mg/kg): 20.55%
- Relative Tumor Proliferation Rate (T/C) ([3]; dose 25 mg/kg): 77.78%
- Relative Tumor Volume (RTV) ([3]; dose 25 mg/kg): 10.28 ± 1.12
- Tumor Weight ([3]; dose 25 mg/kg): 1.49 ± 0.23 g
- Tumor Volume (mm3) (d 1) ([3]; dose 25 mg/kg): 139.84 ± 15.80 mm3
- Tumor Volume (mm3) (d30) ([3]; dose 25 mg/kg): 1428.71 ± 156.12 mm3
- Inhibition Rate (%) ([3]; dose 50 mg/kg): 49.20%
- Relative Tumor Proliferation Rate (T/C) ([3]; dose 50 mg/kg): 58.92%
- Relative Tumor Volume (RTV) ([3]; dose 50 mg/kg): 7.78 ± 1.27
- Tumor Weight ([3]; dose 50 mg/kg): 0.95 ± 0.38 g
- Tumor Volume (mm3) (d 1) ([3]; dose 50 mg/kg): 131.81 ± 7.15 mm3
- Tumor Volume (mm3) (d30) ([3]; dose 50 mg/kg): 1025.16 ± 174.78 mm3
- Inhibition Rate (%) ([3]; dose 100 mg/kg): 65.84%
- Relative Tumor Proliferation Rate (T/C) ([3]; dose 100 mg/kg): 33.95%
- Relative Tumor Volume (RTV) ([3]; dose 100 mg/kg): 4.48 ± 0.75
- Tumor Weight ([3]; dose 100 mg/kg): 0.64 ± 0.18 g
- Tumor Volume (mm3) (d 1) ([3]; dose 100 mg/kg): 134.21 ± 14.43 mm3
- Tumor Volume (mm3) (d30) ([3]; dose 100 mg/kg): 606.16 ± 136.06 mm3
- mouse weight compared with the model group ([3]; mouse, in vivo): no significant changes
- Body Weight (g) (d1) ([3]; mouse, in vivo, 25 mg/kg): 19.51 ± 0.58 g
- Body Weight (g) (d30) ([3]; mouse, in vivo, 25 mg/kg): 23.89 ± 1.18 g
- Body Weight (g) (d1) ([3]; mouse, in vivo, 50 mg/kg): 19.60 ± 0.70 g
- Body Weight (g) (d30) ([3]; mouse, in vivo, 50 mg/kg): 25.41 ± 0.92 g
- Body Weight (g) (d1) ([3]; mouse, in vivo, 100 mg/kg): 19.49 ± 0.54 g
- Body Weight (g) (d30) ([3]; mouse, in vivo, 100 mg/kg): 24.6 ± 2.08 g
